Consider 2 compounds from PMC9545129 (Chemmedchem, 2022).

Structures are written as SMILES.

The test system of test [1] is LAT1. The following applies: cited from earlier work.
Test [2] concerns the target LAT1 (SLC7A5) (Homo sapiens, UniProt Q01650). Kind of test: [3H]-L-leucine efflux assay in preloaded HT-29 cells. It is filed as cell-based. Particulars: concentration not stated.

Sequence of LAT1 (SLC7A5) (Q01650 whole entry): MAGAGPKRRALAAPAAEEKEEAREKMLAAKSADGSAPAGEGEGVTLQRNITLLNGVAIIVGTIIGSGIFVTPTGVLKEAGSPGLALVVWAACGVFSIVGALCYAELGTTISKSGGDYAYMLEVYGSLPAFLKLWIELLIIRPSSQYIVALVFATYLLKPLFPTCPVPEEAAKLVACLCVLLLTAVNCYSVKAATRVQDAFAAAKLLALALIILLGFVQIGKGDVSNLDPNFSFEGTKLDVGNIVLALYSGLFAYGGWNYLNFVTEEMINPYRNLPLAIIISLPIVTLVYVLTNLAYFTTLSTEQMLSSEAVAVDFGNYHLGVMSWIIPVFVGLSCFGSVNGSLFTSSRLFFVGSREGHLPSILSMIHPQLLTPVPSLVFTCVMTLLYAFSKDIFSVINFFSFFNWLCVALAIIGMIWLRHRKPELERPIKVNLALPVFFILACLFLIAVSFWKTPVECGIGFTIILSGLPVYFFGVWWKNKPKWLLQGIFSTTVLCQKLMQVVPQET
Sequence of LAT1 (SLC7A5) (P08195 102-630 partner): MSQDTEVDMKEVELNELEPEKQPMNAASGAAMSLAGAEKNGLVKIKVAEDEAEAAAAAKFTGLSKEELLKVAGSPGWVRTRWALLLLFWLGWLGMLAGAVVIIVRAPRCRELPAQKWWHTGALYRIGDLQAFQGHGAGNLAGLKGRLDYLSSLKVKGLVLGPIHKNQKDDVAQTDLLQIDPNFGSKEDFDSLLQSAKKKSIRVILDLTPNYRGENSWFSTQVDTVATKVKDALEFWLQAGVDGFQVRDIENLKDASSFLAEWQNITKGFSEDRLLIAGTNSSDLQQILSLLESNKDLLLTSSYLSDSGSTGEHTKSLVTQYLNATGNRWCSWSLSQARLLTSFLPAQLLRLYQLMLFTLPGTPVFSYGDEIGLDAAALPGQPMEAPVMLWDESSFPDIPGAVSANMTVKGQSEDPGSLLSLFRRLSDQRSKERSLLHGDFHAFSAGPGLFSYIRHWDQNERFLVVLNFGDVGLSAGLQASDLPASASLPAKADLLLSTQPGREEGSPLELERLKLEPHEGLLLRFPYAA

With `N[C@@H](Cc1c[nH]c2ccc(OCCF)cc12)C(=O)O` [5‐(2‐fluoroethoxy)‐L‐tryptophan], the LAT1 substrate properties entry in test [1] is recorded as “exhibit LAT1 substrate properties”.
As to `N[C@@H](Cc1c[nH]c2ccccc12)C(=O)O` [L‐Trp, L‐tryptophan], in test [2], the “[3H]-L-leucine efflux from preloaded HT-29 cells / substrate for LAT1-mediated transport” value is “elicited clear [^3H]‐L‐leucine efflux”.
